In US12421205B2, “GLP-1 receptor agonist” (HYUNDAI PHARM CO., LTD., priority 2019, dated 2025) one finds EC50 and inhibition data, which are given here for 23 molecules.

SMILES strings stand for the structures. Some results are limits rather than exact numbers.

The target in series [1] is T1, human GLP-1 receptor (Homo sapiens, UniProt P43220).
T1 construct: host or cells: CHO-K1
In words: cAMP activity test (cAMP dynamic HTRF kit) in CHO-K1/GLP-1 receptor-expressing cells. The series is classed as cell-based. The settings on record: cAMP activity, CHO-K1/GLP-1 receptor-expressing cells; read-out: EC50. The method, boiled down:
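Cells in HBSS with 0.1% BSA, 0.5 mM IBMX and 5 mM HEPES, then lysed; cAMP-d2 and anti-cAMP cryptate added for 3 h. HTRF read-out, where FRET signal is inversely proportional to intracellular cAMP.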

Series [2] deals with T2, hERG (Homo sapiens, UniProt Q12809).
T2 construct: purchased Invitrogen PV5365
T2 sequence (Q12809 whole entry): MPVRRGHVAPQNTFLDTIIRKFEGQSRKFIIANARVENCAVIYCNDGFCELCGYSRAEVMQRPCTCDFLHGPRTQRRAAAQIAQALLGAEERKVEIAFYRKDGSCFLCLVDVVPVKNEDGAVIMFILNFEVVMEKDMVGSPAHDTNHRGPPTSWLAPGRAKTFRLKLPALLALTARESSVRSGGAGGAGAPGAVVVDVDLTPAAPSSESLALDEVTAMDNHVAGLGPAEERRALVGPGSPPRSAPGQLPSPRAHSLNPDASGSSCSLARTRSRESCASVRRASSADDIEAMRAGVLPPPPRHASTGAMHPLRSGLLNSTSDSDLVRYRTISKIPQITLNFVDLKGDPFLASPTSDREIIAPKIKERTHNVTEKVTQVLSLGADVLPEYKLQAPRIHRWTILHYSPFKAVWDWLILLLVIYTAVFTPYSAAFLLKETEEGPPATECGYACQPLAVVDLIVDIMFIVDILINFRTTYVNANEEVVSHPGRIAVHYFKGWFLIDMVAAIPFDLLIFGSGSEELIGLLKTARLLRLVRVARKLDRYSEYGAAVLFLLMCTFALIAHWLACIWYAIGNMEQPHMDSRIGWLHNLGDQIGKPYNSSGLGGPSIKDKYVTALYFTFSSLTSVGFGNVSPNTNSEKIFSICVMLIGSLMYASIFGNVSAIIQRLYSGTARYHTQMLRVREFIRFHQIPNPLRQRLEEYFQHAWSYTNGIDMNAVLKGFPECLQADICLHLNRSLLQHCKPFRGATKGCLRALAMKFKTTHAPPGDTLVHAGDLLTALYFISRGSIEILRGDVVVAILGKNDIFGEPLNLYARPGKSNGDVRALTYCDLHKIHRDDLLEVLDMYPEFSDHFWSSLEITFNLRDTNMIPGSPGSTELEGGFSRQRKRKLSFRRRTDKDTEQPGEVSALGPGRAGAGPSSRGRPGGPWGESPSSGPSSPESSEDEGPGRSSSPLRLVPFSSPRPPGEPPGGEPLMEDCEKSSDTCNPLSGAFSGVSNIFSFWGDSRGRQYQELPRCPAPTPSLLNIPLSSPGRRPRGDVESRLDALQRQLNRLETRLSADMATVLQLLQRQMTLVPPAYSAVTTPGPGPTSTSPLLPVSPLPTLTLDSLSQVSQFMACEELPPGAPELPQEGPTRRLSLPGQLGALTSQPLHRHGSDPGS
In words: hERG inhibition test (Predictor hERG Fluorescence Polarization assay kit). Type of series: binding. The settings on record: probe kit Tracer (fluorescent hERG ligand), hERG % inhibition at 10 uM, relative to E-4031 and solvent control. In outline:
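Competitive fluorescence-polarization binding of fluorescent tracer to hERG membrane preparation, 2.5 h at room temperature, mP read at 531/579 nm. % inhibition at 10 uM test compound, scaled between solvent control (0%) and E-4031 (100%).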

T1 sequence (P43220 24-463): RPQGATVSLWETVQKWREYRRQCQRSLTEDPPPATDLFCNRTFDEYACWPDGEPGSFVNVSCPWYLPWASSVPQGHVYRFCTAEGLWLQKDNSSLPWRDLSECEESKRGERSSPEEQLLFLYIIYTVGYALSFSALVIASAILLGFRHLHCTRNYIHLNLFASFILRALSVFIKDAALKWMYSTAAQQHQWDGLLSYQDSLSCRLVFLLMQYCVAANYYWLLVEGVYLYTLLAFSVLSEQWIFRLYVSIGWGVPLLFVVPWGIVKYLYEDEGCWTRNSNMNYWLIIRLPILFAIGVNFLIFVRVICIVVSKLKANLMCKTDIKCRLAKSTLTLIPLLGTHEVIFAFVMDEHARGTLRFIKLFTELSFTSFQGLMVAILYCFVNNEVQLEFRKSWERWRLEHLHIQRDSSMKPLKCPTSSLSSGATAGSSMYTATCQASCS

Regarding `O=C(O)c1ccc2nc(Cc3ccc(-c4cccc(OCc5ccc(Cl)cc5F)n4)cc3)n(CC3CCCO3)c2c1` (stereo not shown) [Example 10, 2-(4-(6-(4-chloro-2-fluorobenzyloxy)pyridin-2-yl)benzyl)-1-((tetrahydrofuran-2-yl)methyl)-1H-benzo[d]imidazole-6-carboxylic acid], the EC50 (in general, the concentration at which the effect is half-maximal) in series [1] came to 24 nM. Moreover, the inhibition (commonly the drop in the measured response relative to a control, in per cent) at 2.5 h, 10 µM in series [2] was -7.54%.
The matching figures for `O=C(O)c1ccc2nc(Cc3ccc(-c4cccc(OCc5ccc(Cl)cc5F)n4)cc3)n(Cc3ccco3)c2c1` [Example 12, 2-(4-(6-(4-chloro-2-fluorobenzyloxy)pyridin-2-yl)benzyl)-1-(furan-2-ylmethyl)-1H-benzo[d]imidazole-6-carboxylic acid]: 85 nM and -2.74%.
Take `N#Cc1ccc(COc2cccc(-c3cc(F)c(Cc4nc5ccc(C(=O)O)cc5n4C[C@@H]4CCO4)c(F)c3)n2)c(F)c1` [Example 103, (S)-2-(4-(6-(4-cyano-2-fluorobenzyloxy)pyridin-2-yl)-2,6-difluorobenzyl)-1-(oxetan-2-ylmethyl)-1H-benzo[d]imidazole-6-carboxylic acid]: the EC50 in series [1] is less than 3.2 nM. Also, the inhibition at 2.5 h, 10 µM in series [2] was 5.66%.
On to `Cc1cccc(COc2cccc(-c3ccc(Cc4nc5ccc(C(=O)O)cc5n4CC4CCCO4)cc3F)n2)c1` (stereo not shown) [Example 90, 2-(3-fluoro-4-(6-(3-methylbenzyloxy)pyridin-2-yl)benzyl)-1-((tetrahydrofuran-2-yl)methyl)-1H-benzo[d]imidazole-6-carboxylic acid], for which the EC50 in series [1] is 250 nM. Further, the inhibition at 2.5 h, 10 µM in series [2] was 20.2%.
`N#Cc1ccc(COc2cccc(-c3ccc(Cc4nc5ccc(C(=O)O)cc5n4CC4CCCO4)c(F)c3)n2)c(F)c1` (stereo not shown) [Example 15, 2-(4-(6-(4-cyano-2-fluorobenzyloxy)pyridin-2-yl)-2-fluorobenzyl)-1-((tetrahydrofuran-2-yl)methyl)-1H-benzo[d]imidazole-6-carboxylic acid]: the EC50 in series [1] worked out at 16 nM. In series [2], the inhibition at 2.5 h, 10 µM is 1.67%.
The matching figures for `O=C(O)c1ccc2nc(Cc3ccc(-c4cccc(OCc5ccc(C(F)(F)F)cc5)n4)c(F)c3)n(C[C@@H]3CCO3)c2c1` [Example 121, (S)-2-(3-fluoro-4-(6-((4-(trifluoromethyl)benzyl)oxy)pyridin-2-yl)benzyl)-1-(oxetan-2-ylmethyl)-1H-benzo[d]imidazole-6-carboxylic acid]: 15 nM and -10.7%.
`O=C(O)c1ccc2nc(Cn3cc(-c4cccc(OCc5ccc(Cl)cc5F)n4)cn3)n(C[C@@H]3CCO3)c2c1` [Example 131, (S)-2-((4-(6-((4-chloro-2-fluorobenzyl)oxy)pyridin-2-yl)-1H-pyrazol-1-yl)methyl)-1-(oxetan-2-ylmethyl)-1H-benzo[d]imidazole-6-carboxylic acid]: the EC50 in series [1] was determined as 1600 nM. Also, the inhibition at 2.5 h, 10 µM in series [2] was -0.97%.
`COCCn1c(Cc2ccc(-c3cccc(OCc4ccc(Cl)cc4F)c3)c(F)c2)nc2ccc(C(=O)O)cc21` [Example 39, 2-((3′-(4-chloro-2-fluorobenzyloxy)-2-fluorobiphenyl-4-yl)methyl)-1-(2-methoxyethyl)-1H-benzo[d]imidazole-6-carboxylic acid]: the EC50 in series [1] came to 250 nM. Also, in series [2], the inhibition at 2.5 h, 10 µM is -12.8%.
`O=C(O)c1ccc2nc(Cn3ccc(-c4cccc(OCc5ccc(Cl)cc5F)n4)cc3=O)n(CC3CCCO3)c2c1` (stereo not shown) [Example 105, 2-((4-(6-(4-chloro-2-fluorobenzyloxy)pyridin-2-yl)-2-oxopyridin-1(2H)-yl)methyl)-1-((tetrahydrofuran-2-yl)methyl)-1H-benzo[d]imidazole-6-carboxylic acid]: the EC50 in series [1] turned out to be 46 nM. Also, in series [2], the inhibition at 2.5 h, 10 µM was 25.1%.
As to `O=C(O)c1ccc2nc(Cc3ccc(-c4ccc(F)c(OCc5ccc(Cl)cc5F)n4)c(F)c3)n(C[C@@H]3CCO3)c2c1` [Example 117, (S)-2-(4-(6-((4-chloro-2-fluorobenzyl)oxy)-5-fluoropyridin-2-yl)-3-fluorobenzyl)-1-(oxetan-2-ylmethyl)-1H-benzo[d]imidazole-6-carboxylic acid], in series [1], the 50% effective concentration (EC50) was less than 3.2 nM. In series [2], the inhibition at 2.5 h, 10 µM was 12.5%.
As for `O=C(O)c1ccc2nc(Cc3ccc(-c4cccc(COc5ccc(Cl)cc5F)n4)cc3F)n(C[C@H]3CCCO3)c2c1` [Example 45, (R)-2-(4-(6-((4-chloro-2-fluorophenoxy)methyl)pyridin-2-yl)-2-fluorobenzyl)-1-((tetrahydrofuran-2-yl)methyl)-1H-benzo[d]imidazole-6-carboxylic acid], the EC50 in series [1] came out at 3700 nM. Also, the inhibition at 2.5 h, 10 µM in series [2] was 27.7%.
Take `N#Cc1ccc(COc2cccc(-c3ccc(Cc4nc5ccc(C(=O)O)cc5n4CC4CCCO4)cc3F)c2)c(F)c1` (stereo not shown) [Example 9, 2-((3′-(4-cyano-2-fluorobenzyloxy)-2-fluorobiphenyl-4-yl)methyl)-1-((tetrahydrofuran-2-yl)methyl)-1H-benzo[d]imidazole-6-carboxylic acid]: in series [1], the concentration giving a half-maximal response (EC50) stood at 75 nM. Besides, in series [2], the inhibition at 2.5 h, 10 µM is 0.48%.
With `N#Cc1ccc(COc2cccc(-c3ccc(Cc4nc5ccc(C(=O)O)cc5n4C[C@@H]4CCO4)cc3F)n2)cc1` [Example 118, (S)-2-(4-(6-((4-cyanobenzyl)oxy)pyridin-2-yl)-3-fluorobenzyl)-1-(oxetan-2-ylmethyl)-1H-benzo[d]imidazole-6-carboxylic acid], the EC50 in series [1] was 4.3 nM. In addition, the inhibition at 2.5 h, 10 µM in series [2] was 20.7%.
For `COCCn1c(Cc2ccc(-c3cccc(OCc4ccc(C#N)cc4F)c3)cc2)nc2ccc(C(=O)O)cc21` [Example 21, 2-((3′-(4-cyano-2-fluorobenzyloxy)biphenyl-4-yl)methyl)-1-(2-methoxyethyl)-1H-benzo[d]imidazole-6-carboxylic acid], in that order: 420 nM and -9.94%.
The matching figures for `O=C(O)c1ccc2nc(Cc3ccc(-c4cccc(OCc5ccc(Cl)c(F)c5)n4)c(F)c3)n(CC3CCCO3)c2c1` (stereo not shown) [Example 99, 2-(4-(6-(4-chloro-3-fluorobenzyloxy)pyridin-2-yl)-3-fluorobenzyl)-1-((tetrahydrofuran-2-yl)methyl)-1H-benzo[d]imidazole-6-carboxylic acid]: 70 nM and -0.33%.
Take `N#Cc1ccc(COc2cccc(-c3ccc(Cc4nc5ccc(C(=O)O)cc5n4Cc4ccco4)cc3)c2)c(F)c1` [Example 27, 2-((3′-(4-cyano-2-fluorobenzyloxy)biphenyl-4-yl)methyl)-1-(furan-2-ylmethyl)-1H-benzo[d]imidazole-6-carboxylic acid]: in series [1], the EC50 was 270 nM. In series [2], the inhibition at 2.5 h, 10 µM was -4.76%.
The matching figures for `O=C(O)c1ccc2nc(Cc3ccc(-c4cccc(OCc5ccc(Cl)cc5F)n4)c(F)c3)n(C[C@@H]3CCO3)c2c1` [Example 79, (S)-2-(4-(6-(4-chloro-2-fluorobenzyloxy)pyridin-2-yl)-3-fluorobenzyl)-1-(oxetan-2-ylmethyl)-1H-benzo[d]imidazole-6-carboxylic acid]: less than 3.2 nM and -2.04%.
For `Cc1cc(-c2cccc(OCc3ccc(Cl)cc3F)n2)ccc1Cc1nc2ccc(C(=O)O)cc2n1CC1CCCO1` (stereo not shown) [Example 69, 2-(4-(6-(4-chloro-2-fluorobenzyloxy)pyridin-2-yl)-2-methylbenzyl)-1-((tetrahydrofuran-2-yl)methyl)-1H-benzo[d]imidazole-6-carboxylic acid], in that order: 31 nM and -14.7%.
The matching figures for `O=C(O)c1ccc2nc(Cc3ccc(-c4cccc(OCc5ccc(Cl)cc5F)n4)c(F)c3)n(CC3CCCO3)c2c1` (stereo not shown) [Example 11, 2-(4-(6-(4-chloro-2-fluorobenzyloxy)pyridin-2-yl)-3-fluorobenzyl)-1-((tetrahydrofuran-2-yl)methyl)-1H-benzo[d]imidazole-6-carboxylic acid]: 6.5 nM and -1.31%.
On to `O=C(O)c1ccc2nc(Cc3ccc(-c4cccc(OCc5ccc(Cl)cc5F)n4)cc3)n(Cc3cccnc3)c2c1` [Example 1, 2-(4-(6-(4-chloro-2-fluorobenzyloxy)pyridin-2-yl)benzyl)-1-(pyridin-3-ylmethyl)-1H-benzo[d]imidazole-6-carboxylic acid], for which, in series [1], the concentration giving a half-maximal response (EC50) is 10 nM. Further, the inhibition at 2.5 h, 10 µM in series [2] is 1.26%.
The matching figures for `COCCn1c(Cc2ccc(-c3cccc(OCc4ccc(C#N)cc4F)c3)c(F)c2)nc2ccc(C(=O)O)cc21` [Example 40, 2-((3′-(4-cyano-2-fluorobenzyloxy)-2-fluorobiphenyl-4-yl)methyl)-1-(2-methoxyethyl)-1H-benzo[d]imidazole-6-carboxylic acid]: 260 nM and 6.91%.
On to `O=C(O)c1ccc2nc(Cc3ccc(-c4cccc(OCc5ccccc5)n4)cc3F)n(CC3CCCO3)c2c1` (stereo not shown) [Example 83, 2-(4-(6-(benzyloxy)pyridin-2-yl)-2-fluorobenzyl)-1-((tetrahydrofuran-2-yl)methyl)-1H-benzo[d]imidazole-6-carboxylic acid], for which the EC50 in series [1] was determined as 160 nM. Moreover, the inhibition at 2.5 h, 10 µM in series [2] is 2.37%.
For `N#Cc1ccc(COc2cccc(-c3ccc(Cc4nc5ccc(C(=O)O)cc5n4C[C@@H]4CCCO4)c(F)c3)n2)c(F)c1` [Example 66, (S)-2-(4-(6-(4-cyano-2-fluorobenzyloxy)pyridin-2-yl)-2-fluorobenzyl)-1-((tetrahydrofuran-2-yl)methyl)-1H-benzo[d]imidazole-6-carboxylic acid], in that order: 4.6 nM and -7.97%.
